# Reference: patent EP0109697B1, “Rodent bait” (priority 1982, dated 1984)
# How the values were obtained:
# [1] = system: Rats; assay: Feeding trials with various acute poisons in formulation C particles (Example 11), rats; assay type: in vivo; conditions: RAT, formulation C particle 1.5 × 1.5 mm
# Method: (§1) Particles containing various acute poisons were made according to Formulation C, and feeding trials were carried out with rats and with mice.
# [2] = system: female Wistar rats; assay: Feeding test of totally homogeneous aldicarb bait (Example 1), rats; assay type: in vivo, rat; conditions: for Kill Rat: 100 ppm aldicarb in medium oatmeal, 5 female Wistar rats
# Description: (§2) Except where otherwise stated, baits according to the invention were produced by thoroughly hand mixing the particles with medium oatmeal, and the baits were fed to caged rats and mice as the sole feed. Water was made freely available to them. The baits remaining in each cage were weighed daily, and fresh baits provided each day.
# (§3) Totally homoneneous baits were produced by slurrying an acetone solution of aldicarb on medium oatmeal to give a concentrate, then diluting the concentrate with medium oatmeal by hand mixing, to give an aldicarb concentration of 100 ppm. The toxicity of the resulting bait was determined by tests on 5 female Wistar rats and 10 male LACA mice.
# [3] = system: male LACA mice; assay: Feeding test of totally homogeneous aldicarb bait (Example 1), mice; assay type: in vivo, mouse; conditions: for Kill Mouse: 100 ppm aldicarb in medium oatmeal, 10 male LACA mice
# Description: as §2, §3
# [4] = system: Wistar females; assay: Feeding test of formulation A 1.25 mg particles in oatmeal (Example 2); assay type: in vivo, rat; conditions: one 1.25 mg pellet per 20 grams of oatmeal, 5 Wistar females
# Method: as §2
# The toxicity of aldicarb particles made to formulation A was determined by tests on 5 Wistar females exposed to medium oatmeal containing one 1.25 mg pellet per 20 grams of oatmeal.
# [5] = system: Heterozygous anti-coagulant resistant rats; assay: Feeding test of formulation A 1.25 mg particles in oatmeal (Example 3); assay type: in vivo, rat; conditions: one 1.25 mg particle per 20 grams of oatmeal, bait not changed daily, 5 heterozygous anti-coagulant resistant rats
# Method: as §2
# 5 Heterozygous anti-coagulant resistant rats were allowed to feed on bait consisting of medium oatmeal containing one 1.25 mg particle made to formulation A per 20 grams of oatmeal. The bait was weighed daily, but in this example it was not changed daily.
# [6] = system: male LACA mice; assay: Feeding test of formulation A 0.5 mg particles in oatmeal (Example 4); assay type: in vivo, mouse; conditions: 10 male LACA mice
# Method: as §2
# 10 Male LACA mice were fed with bait consisting of medium oatmeal containing one 0.5 mg particle made according to formulation A per 10 grams of oatmeal.
# [7] = system: male LACA mice; assay: Feeding test of formulation A 0.2 mg particles in oatmeal (Example 5); assay type: in vivo, mouse; conditions: 10 male LACA mice
# Method: as §2
# 10 Male LACA mice were permitted to feed on bait consisting of medium oatmeal containing one 0.2 mg particle of formulation A per-2 grams of oatmeal.
# [8] = system: male LACA mice; assay: Feeding test of formulation B 0.2 mg particles in oats (Example 6); assay type: in vivo, mouse; conditions: 50 g medium oats with 10 particles of formulation B, 0.2 mg aldicarb each; 5 male LACA mice starved for 24 hours; Day 1
# Method: as §2
# 5 Male LACA mice were starved for 24 hours and then permitted to feed on 50 g of medium oats containing dispersed therein 10 particles of formulation B each containing 0.2 mg of aldicarb.
# [9] = system: Male heterozygous resistant rats; assay: Feeding test of formulation B 1.1 mg particles in oatmeal (Example 7); assay type: in vivo, rat; conditions: 50 g medium oatmeal with 10 particles of formulation B, 1.1 mg aldicarb each; 3 male heterozygous resistant rats; Day 1
# Method: as §2
# 3 Male heterozygous resistant rats were permitted to feed on 50 g medium oatmeal containing 10 particles of formulation B each containing 1.1 mg of aldicarb.
# [10] = system: female 300-350 gram Wistar rats; assay: Feeding test of mouse bait particles on rats (Example 8); assay type: in vivo, rat; conditions: for Mouse bait particles Rat Kill: 0.1 mg aldicarb particles, one per two grams of oatmeal (50 ppm), five female Wistar rats
# Method: (§4) Particles of a size suitable for consumption whole (without nibbling) by mice, i.e. about 0.5 mm diameter spheres, containing 0.1 mg of aldicarb per particle were produced by a precipitation process.
# (§5) The mouse bait particles were distributed in medium oatmeal at the concentration of one per two grams of oatmeal (50 ppm), and the rat bait particles were distributed in medium oatmeal at the concentration of one per twenty grams of oatmeal (50 ppm).
# (§6) Ten male 12-18 gram LAC mice and five female 300-350 gram Wistar rats were permitted to feed on the mouse bait; and five female 300-350 gram Wistar rats were allowed to feed on the rat bait. The baits were topped up when necessary to keep a supply of food material available, and water was supplied freely.
# [11] = system: male 12-18 gram LAC mice; assay: Feeding test of mouse bait particles on mice (Example 8); assay type: in vivo; conditions: for Mouse bait particles Mouse Kill: 0.1 mg aldicarb particles, one per two grams of oatmeal (50 ppm), ten male LAC mice
# Method: as §4, §5, §6
# [12] = system: female 300-350 gram Wistar rats; assay: Feeding test of rat bait particles on rats (Example 8); assay type: in vivo; conditions: for Rat bait particles Rat Kill: 1.0 mg aldicarb particles, one per twenty grams of oatmeal (50 ppm), five female Wistar rats
# Method: Suitably larger particles appropriate for rats, i.e. about 1 mm x 1 mm cylinders, containing 1.0 mg of aldicarb per particle were produced by extrusion.
# as §5, §6
# [13] = system: mice with a body weight approximately 20 g; assay: No-choice feeding test of three 100 ppm aldicarb presentations (Example 9), mice; assay type: in vivo, mouse; conditions: for Mouse Kill %: no choice, after 5 days
# Method: (§7) Three baits were produced containing the toxicant aldicarb, each at 100 ppm (0.01%) concentration. Aldicarb was presented in the bait either homogeneously dispersed in the manner of a conventional rodenticide, as discrete 0.4 x 0.4 mm particles, (formulation C) or as discrete 1.0 x 1.0 mm particles. The diluent was medium grade oatmeal in all cases. Tests were carried out on mice with a body weight approximately 20 g, rats with a body weight approximately 250 g, and rabbits with a body weight approximately 2,500 g.
# (§8) Baits were offered with no choice of alternative food for five days.
# [14] = system: rats with a body weight approximately 250 g; assay: No-choice feeding test of three 100 ppm aldicarb presentations (Example 9), rats; assay type: in vivo, rat; conditions: after 5 days
# Method: as §7, §8
# [15] = in vivo; assay type: in vivo, rabbit; conditions: rabbit, in vivo, po; 100 ppm as HOMOGENEOUS; no choice, after 5 days; read-out: Rabbit Kill %
# Method: as §7, §8
# [16] = system: rabbits with a body weight approximately 2,500 g; assay: in vivo; assay type: in vivo, rabbit; conditions: 100 ppm aldicarb; any of the three formulations
# Method: as §7, §8
# [17] = system: Rats; assay: Determination of optimum particle size (Example 10), rats; assay type: in vivo, rat; conditions: formulation C, one particle per 10 g diet base, after 5 days
# Description: (§9) Rats were offered medium oatmeal diet containing aldicarb particles (formulation C) at the rate of one per 10 g diet base and mice were offered the particles at the rate of one per 4 g diet base.
# [18] = system: mice; assay: Determination of optimum particle size (Example 10), mice; assay type: in vivo, mouse; conditions: formulation C, one particle per 4 g diet base, after 5 days
# Description: as §9
# [19] = system: mice; assay: Feeding trials with various acute poisons in formulation C particles (Example 11), mice; assay type: in vivo; conditions: MOUSE; formulation C particle 0.45 × 0.45 mm; bait conc. 22.5 ppm
# Method: as §1
# [20] = formulation A 0.5 mg aldicarb particles, 4 days
# [21] = 100 ppm as 0.4 × 0.4 mm particles (formulation C)
# [22] = 100 ppm as 1.0 × 1.0 mm particles
smiles,measurement,setting,value
"O=C(O)CF [SODIUM FLUOROACETATE, Sodium fluoroacetate]",DAYS TO KILL,[1]; bait conc. 250 ppm,2 days
same,Kill (%),[1]; bait conc. 250 ppm,100%
"CNC(=O)O/N=C/C(C)(C)SC [aldicarb, 2 methyl-2-(methylthio) propionaldehyde 0-(methylcarbamoyl) oxime]",Kill Rat,[2]; Day 1,0 out of 5
same,Kill Rat,[2]; Day 2,0 out of 5
same,Kill Rat,[2]; Day 3,0 out of 5
same,kills recorded,"[2]; 100 ppm aldicarb, rats, after 3 days exposure",no kills
same,Kill Mouse,[3]; Day 1,0 out of 10
same,Kill Mouse,[3]; Day 2,0 out of 10
same,Kill Mouse,[3]; Day 3,0 out of 10
same,Kill Mouse,[3]; Day 4,0 out of 10
same,kills recorded,"[3]; 100 ppm aldicarb, mice, after 4 days exposure",no kills
same,Kill,[4]; Day 1,2 out of 5
same,Kill,[4]; Day 3,Remaining rat killed
same,Kill,[5]; Day 1,3 out of 5
same,Kill,[5]; Day 3,Remaining rat killed
same,Kill,[6]; [20],40%
same,mice killed (total of Example 4),[6]; [20],4 out of 10
same,Kill,"[6]; formulation A, one 0.5 mg particle per 10 grams of oatmeal, Day 1",1 out of 10
same,Kill,"[7]; formulation A 0.2 mg aldicarb particles, Example 5",100%
same,Kill,"[7]; formulation A, one 0.2 mg particle per 2 grams of oatmeal, Day 1",4 out of 10
same,Kill,[8],2 out of 5
same,Kill,[9],All killed
same,Mouse bait particles Rat Kill,[10]; Day 1,0/5
same,Mouse bait particles Rat Kill,[10]; Day 2,0/5
same,Mouse bait particles Rat Kill,[10]; Day 3,0/5
same,Mouse bait particles Rat Kill,[10]; Day 4,0/5
same,Mouse bait particles Rat Kill,[10]; Day 5 to 7,0/5
same,kill of rats feeding on the mouse bait,"[10]; 0.1 mg particles, 50 ppm bait, seven days of feeding",not killed even after seven days
same,Mouse bait particles Mouse Kill,[11]; Day 1,4 out of 10
same,Mouse bait particles Mouse Kill,[11]; Day 3,Remaining mouse died
same,death of all animals,"[11]; all mice feeding on the 0.1 mg particles, 50 ppm bait",died by the end of the third day
same,Rat bait particles Rat Kill,[12]; Day 1,2 out of 5
same,Rat bait particles Rat Kill,[12]; Day 3,Remaining rat died
same,death of all animals,"[12]; all rats feeding on the 1 mg particles, 50 ppm bait",died by the end of the third day
same,death of mice,[13]; 100 ppm aldicarb on 0.4 x 0.4 mm particles,All mice died
same,Mouse Kill %,[13]; [21],100%
same,Mouse Kill %,[13]; [22],30%
same,Mouse Kill %,[13]; 100 ppm as HOMOGENEOUS,0%
same,Rat Kill %,[14]; [21],0%
same,Rat Kill %,[14]; [22],100%
same,Rat Kill %,[14]; 100 ppm as HOMOGENEOUS,0%
same,mortality at 120 h,[15],0%
same,death of rabbits,[16],No rabbits died
same,Kill (%),"[17]; 60—80 g Weaner RATS, particle 0.75 × 0.75 mm",100%
same,Kill (%),"[17]; 60—80 g Weaner RATS, particle 1.0 × 1.0 mm",100%
same,Kill (%),"[17]; 60—80 g Weaner RATS, particle 1.5 × 3.0 mm",80%
same,Kill (%),"[17]; 300—400 g Adult RATS, particle 0.75 × 0.75 mm",50%
same,Kill (%),"[17]; 300—400 g Adult RATS, particle 1.0 × 1.0 mm",100%
same,Kill (%),"[17]; 300—400 g Adult RATS, particle 1.5 × 3.0 mm",100%
same,Kill (%),"[18]; 12—10 g. Weaner MICE, particle 0.2 × 0.5 mm",60%
same,Kill (%),"[18]; 12—10 g. Weaner MICE, particle 0.4 × 0.4 mm",100%
same,Kill (%),"[18]; 12—10 g. Weaner MICE, particle 0.5 × 0.5 mm",70%
same,Kill (%),"[18]; 12—10 g. Weaner MICE, particle 0.75 × 0.75 mm",57%
same,Kill (%),"[18]; 20—25 g Adult MICE, particle 0.2 × 0.5 mm",0%
same,Kill (%),"[18]; 20—25 g Adult MICE, particle 0.4 × 0.4 mm",100%
same,Kill (%),"[18]; 20—25 g Adult MICE, particle 0.5 × 0.5 mm",100%
"CC(=O)O[C@@H]1C[C@]2(O)[C@H](CC[C@]3(C)[C@@H](c4ccc(=O)oc4)CC[C@@]32O)[C@@]2(C)CC[C@H](O[C@@H]3O[C@H](CO)[C@@H](O)[C@H](O)[C@H]3O)C=C12 [SCILLIROSIDE, scilliroside]",DAYS TO KILL,[1]; bait conc. 50 ppm,2 days
same,Kill (%),[1]; bait conc. 50 ppm,100%
"Cc1cc(N(C)C)nc(Cl)n1 [CRIMIDINE, 2 chloro-4-(dimethylamino)-6-methylpyrimidine]",DAYS TO KILL,[19],5 days
same,Kill (%),[19],100%
same,DAYS TO KILL,[1]; bait conc. 250 ppm,3 days
same,Kill (%),[1]; bait conc. 250 ppm,100%
